# From paper PMC10499581 (Journal of Ginseng Research, 2023)
# T1: PURA (Rattus norvegicus, UniProt A0A8I5YBE8)
# T1 sequence (A0A8I5YBE8 1-321): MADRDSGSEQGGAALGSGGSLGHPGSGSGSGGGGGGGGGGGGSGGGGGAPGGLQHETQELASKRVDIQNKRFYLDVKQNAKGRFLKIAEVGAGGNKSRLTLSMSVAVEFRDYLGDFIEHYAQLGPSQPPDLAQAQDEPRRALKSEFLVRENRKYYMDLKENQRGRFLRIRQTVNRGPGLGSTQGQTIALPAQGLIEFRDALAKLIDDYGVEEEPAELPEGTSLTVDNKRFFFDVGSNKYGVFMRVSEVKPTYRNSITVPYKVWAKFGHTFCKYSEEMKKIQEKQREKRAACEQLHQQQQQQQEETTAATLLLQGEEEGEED
# T2: Pur-alpha (PURA), wild type, recombinant His-tagged (rat, UniProt A0A8I5YBE8 1-321)
# T2 sequence (looked up): T1 sequence (A0A8I5YBE8 1-321)
# B1: Pur-beta (PURB) (natural protein, UniProt Q68A21 1-315, looked up)
# chain: MADGDSGSERGGGGPGSFQPAPRGGGGPGGEQETQELASKRLDIQNKRFYLDVKQNAKGRFLKIAEVGAGGSKSRLTLSMAVAAEFRDSLGDFIEHYAQLGPSSPEQLAAGAEEGGGPRRALKSEFLVRENRKYYLDLKENQRGRFLRIRQTVNRGGGGFGGGPGPGGLQSGQTIALPAQGLIEFRDALAKLIDDYGGEDDELAGGPGGGAGGPGGGLYGELPEGTSITVDSKRFFFDVGCNKYGVFLRVSEVKPSYRNAITVPFKAWGKFGGAFCRYADEMKEIQERQRDKLYERRGGGSGGGDESEGEEVDED
# Assays:
# [1] = target: T1, PURA; assay: biolayer interferometry, single concentration; format: binding; conditions: 30 °C, His-tagged PURA immobilized
# [2] = target: T2, Pur-alpha (PURA), wild type, …; assay: BLI
Molecule,wavelength shift at 300 μM [1],Kd [2] [nM]
CC(C)=CCC[C@](C)(O[C@@H]1O[C@H](CO)[C@@H](O)[C@H](O)[C@H]1O)[C@H]1CC[C@]2(C)[C@@H]1[C@H](O)C[C@@H]1[C@@]3(C)CC[C@H](O)C(C)(C)[C@@H]3[C@@H](O)C[C@]12C [F1],"The direct binding strength of PURA to Rb1,Re, Rh1, Rg1, F1, Rd, Rh2,CK, PPD",
CC(C)=CCC[C@](C)(O[C@@H]1O[C@H](CO)[C@@H](O)[C@H](O)[C@H]1O)[C@H]1CC[C@]2(C)[C@@H]1[C@H](O)C[C@@H]1[C@@]3(C)CC[C@H](O)C(C)(C)[C@@H]3CC[C@]12C [CK],"The direct binding strength of PURA to Rb1,Re, Rh1, Rg1, F1, Rd, Rh2,CK, PPD",
CC(C)=CCC[C@](C)(O)[C@H]1CC[C@]2(C)[C@@H]1[C@H](O)C[C@@H]1[C@@]3(C)CC[C@H](O)C(C)(C)[C@@H]3[C@@H](O[C@@H]3O[C@H](CO)[C@@H](O)[C@H](O)[C@H]3O)C[C@]12C [Rh1],"The direct binding strength of PURA to Rb1,Re, Rh1, Rg1, F1, Rd, Rh2,CK, PPD",
CC(C)=CCC[C@](C)(O)[C@H]1CC[C@]2(C)[C@@H]1[C@H](O)C[C@@H]1[C@@]3(C)CC[C@H](O[C@@H]4O[C@H](CO)[C@@H](O)[C@H](O)[C@H]4O)C(C)(C)[C@@H]3CC[C@]12C [Rh2],"The direct binding strength of PURA to Rb1,Re, Rh1, Rg1, F1, Rd, Rh2,CK, PPD",
B1,,1930
